What was measured:
MCF7 = test: panel of 60 human tumor cell lines, growth inhibition (Breast Cancer); conditions: MCF7
NCI-H23 = test: panel of 60 human tumor cell lines, growth inhibition (Non-Small Cell Lung Cancer)
HCT-15 = test: panel of 60 human tumor cell lines, growth inhibition (Colon Cancer); conditions: HCT-15
TK-10 = test: panel of 60 human tumor cell lines, growth inhibition (Renal Cancer); conditions: TK-10
IGROV1 = test: panel of 60 human tumor cell lines, growth inhibition (Ovarian Cancer); conditions: IGROVI
MDA-MB-468 = test: panel of 60 human tumor cell lines, growth inhibition (Breast Cancer); conditions: MDA-MB-468
HOP-92 = test: panel of 60 human tumor cell lines, growth inhibition (Non-Small Cell Lung Cancer); conditions: HOP-92
COLO 205 = test: panel of 60 human tumor cell lines, growth inhibition (Colon Cancer); conditions: COLO 205
BT-549 = test: panel of 60 human tumor cell lines, growth inhibition (Breast Cancer); conditions: BT-549
UACC-257 = test: panel of 60 human tumor cell lines, growth inhibition (Melanoma); conditions: UACC-257
RXF 393 = test: panel of 60 human tumor cell lines, growth inhibition (Renal Cancer); conditions: RXF 393
SK-MEL-5 = test: panel of 60 human tumor cell lines, growth inhibition (Melanoma); conditions: 8K-MEL-5
SK-OV-3 = test: panel of 60 human tumor cell lines, growth inhibition (Ovarian Cancer); conditions: SK-OV-3
OVCAR-8 = test: as above; conditions: OVCAR-8
NCI-H522 = test: panel of 60 human tumor cell lines, growth inhibition (Non-Small Cell Lung Cancer); conditions: NCI-H522
OVCAR-3 = test: panel of 60 human tumor cell lines, growth inhibition (Ovarian Cancer); conditions: OVCAR-3
CCRF-CEM = test: panel of 60 human tumor cell lines, growth inhibition (Leukemia)
A549/ATCC = test: panel of 60 human tumor cell lines, growth inhibition (Non-Small Cell Lung Cancer); conditions: A549/ATCC

Structure (SMILES): C=C1C(=O)O[C@H]2[C@H]1CC/C(COC(=O)NC)=C\CC[C@@]1(C)O[C@@H]21 [JVM 2-57]
- Percent Growth (MCF7; Log10 Concentration −4.0): −75%
- Percent Growth (MCF7; Log10 Concentration −5.0): 4%
- Percent Growth (MCF7; Log10 Concentration −6.0): 83%
- Percent Growth (MCF7; Log10 Concentration −7.0): 88%
- Percent Growth (MCF7; Log10 Concentration −8.0): 94%
- GI50 (MCF7; NCI five dose): 2610 nM
- TGI (MCF7; NCI five dose): 1.11E−5
- TGI (NCI-H23; NCI five dose): 2.04E−5
- Percent Growth (NCI-H23; NCI-H 3, Log10 Concentration −4.0): −68%
- Percent Growth (NCI-H23; NCI-H 3, Log10 Concentration −5.0): 30%
- Percent Growth (NCI-H23; NCI-H 3, Log10 Concentration −6.0): 92%
- Percent Growth (NCI-H23; NCI-H 3, Log10 Concentration −7.0): 95%
- Percent Growth (NCI-H23; NCI-H 3, Log10 Concentration −8.0): 94%
- GI50 (NCI-H23; NCI-H 3, NCI five dose): 4790 nM
- Percent Growth (HCT-15; Log10 Concentration −4.0): −83%
- Percent Growth (HCT-15; Log10 Concentration −5.0): 4%
- Percent Growth (HCT-15; Log10 Concentration −6.0): 82%
- Percent Growth (HCT-15; Log10 Concentration −7.0): 97%
- Percent Growth (HCT-15; Log10 Concentration −8.0): 98%
- GI50 (HCT-15; NCI five dose): 2580 nM
- TGI (HCT-15; NCI five dose): 1.12E−5
- Percent Growth (TK-10; Log10 Concentration −4.0): −95%
- Percent Growth (TK-10; Log10 Concentration −5.0): −5%
- Percent Growth (TK-10; Log10 Concentration −6.0): 96%
- Percent Growth (TK-10; Log10 Concentration −7.0): 98%
- Percent Growth (TK-10; Log10 Concentration −8.0): 94%
- GI50 (TK-10; NCI five dose): 2860 nM
- TGI (TK-10; NCI five dose): 8.97E−6
- Percent Growth (IGROV1; Log10 Concentration −4.0): −57%
- Percent Growth (IGROV1; Log10 Concentration −5.0): 8%
- Percent Growth (IGROV1; Log10 Concentration −6.0): 102%
- Percent Growth (IGROV1; Log10 Concentration −7.0): 101%
- Percent Growth (IGROV1; Log10 Concentration −8.0): 100%
- GI50 (IGROV1; NCI five dose): 3580 nM
- TGI (IGROV1; NCI five dose): 1.32E−5
- Percent Growth (MDA-MB-468; Log10 Concentration −4.0): −65%
- Percent Growth (MDA-MB-468; Log10 Concentration −5.0): −18%
- Percent Growth (MDA-MB-468; Log10 Concentration −6.0): 58%
- Percent Growth (MDA-MB-468; Log10 Concentration −7.0): 99%
- Percent Growth (MDA-MB-468; Log10 Concentration −8.0): 100%
- GI50 (MDA-MB-468; NCI five dose): 1260 nM
- TGI (MDA-MB-468; NCI five dose): 5.83E−6
- Percent Growth (HOP-92; Log10 Concentration −4.0): −95%
- Percent Growth (HOP-92; Log10 Concentration −5.0): −9%
- Percent Growth (HOP-92; Log10 Concentration −6.0): 83%
- Percent Growth (HOP-92; Log10 Concentration −7.0): 91%
- Percent Growth (HOP-92; Log10 Concentration −8.0): 92%
- GI50 (HOP-92; NCI five dose): 2260 nM
- TGI (HOP-92; NCI five dose): 7.90E−6
- Percent Growth (COLO 205; Log10 Concentration −4.0): −94%
- Percent Growth (COLO 205; Log10 Concentration −5.0): −8%
- Percent Growth (COLO 205; Log10 Concentration −6.0): 95%
- Percent Growth (COLO 205; Log10 Concentration −7.0): 97%
- Percent Growth (COLO 205; Log10 Concentration −8.0): 103%
- GI50 (COLO 205; NCI five dose): 2730 nM
- TGI (COLO 205; NCI five dose): 8.33E−6
- CC50 (COLO 205; read-out: LC50, NCI five dose): 30800 nM
- Percent Growth (BT-549; Log10 Concentration −4.0): −96%
- Percent Growth (BT-549; Log10 Concentration −6.0): 74%
- Percent Growth (BT-549; Log10 Concentration −7.0): 86%
- Percent Growth (BT-549; Log10 Concentration −8.0): 105%
- GI50 (BT-549; NCI five dose): 2130 nM
- TGI (BT-549; NCI five dose): 9.96E−6
- Percent Growth (UACC-257; Log10 Concentration −4.0): −91%
- Percent Growth (UACC-257; Log10 Concentration −5.0): 24%
- Percent Growth (UACC-257; Log10 Concentration −6.0): 73%
- Percent Growth (UACC-257; Log10 Concentration −7.0): 94%
- Percent Growth (UACC-257; Log10 Concentration −8.0): 94%
- GI50 (UACC-257; NCI five dose): 2960 nM
- TGI (UACC-257; NCI five dose): 1.62E−5
- Percent Growth (RXF 393; Log10 Concentration −4.0): −76%
- Percent Growth (RXF 393; Log10 Concentration −5.0): −2%
- Percent Growth (RXF 393; Log10 Concentration −6.0): 75%
- Percent Growth (RXF 393; Log10 Concentration −7.0): 107%
- Percent Growth (RXF 393; Log10 Concentration −8.0): 99%
- GI50 (RXF 393; NCI five dose): 2120 nM
- TGI (RXF 393; NCI five dose): 9.35E−6
- Percent Growth (SK-MEL-5; Log10 Concentration −4.0): −73%
- Percent Growth (SK-MEL-5; Log10 Concentration −5.0): 56%
- Percent Growth (SK-MEL-5; Log10 Concentration −6.0): 97%
- Percent Growth (SK-MEL-5; Log10 Concentration −7.0): 98%
- Percent Growth (SK-MEL-5; Log10 Concentration −8.0): 100%
- GI50 (SK-MEL-5; NCI five dose): 11100 nM
- TGI (SK-MEL-5; NCI five dose): 2.70E−5
- Percent Growth (SK-OV-3; Log10 Concentration −4.0): −26%
- Percent Growth (SK-OV-3; Log10 Concentration −5.0): 91%
- Percent Growth (SK-OV-3; Log10 Concentration −6.0): 105%
- Percent Growth (SK-OV-3; Log10 Concentration −7.0): 90%
- Percent Growth (SK-OV-3; Log10 Concentration −8.0): 101%
- GI50 (SK-OV-3; NCI five dose): 22400 nM
- TGI (SK-OV-3; NCI five dose): 5.96E−5
- Percent Growth (OVCAR-8; Log10 Concentration −4.0): −76%
- Percent Growth (OVCAR-8; Log10 Concentration −5.0): 30%
- Percent Growth (OVCAR-8; Log10 Concentration −6.0): 92%
- Percent Growth (OVCAR-8; Log10 Concentration −7.0): 160%
- Percent Growth (OVCAR-8; Log10 Concentration −8.0): 100%
- GI50 (OVCAR-8; NCI five dose): 4820 nM
- TGI (OVCAR-8; NCI five dose): 1.93E−5
- Percent Growth (NCI-H522; Log10 Concentration −4.0): −74%
- Percent Growth (NCI-H522; Log10 Concentration −5.0): −73%
- Percent Growth (NCI-H522; Log10 Concentration −6.0): 68%
- Percent Growth (NCI-H522; Log10 Concentration −7.0): 87%
- Percent Growth (NCI-H522; Log10 Concentration −8.0): 89%
- GI50 (NCI-H522; NCI five dose): 1330 nM
- TGI (NCI-H522; NCI five dose): 3.02E−6
- Percent Growth (OVCAR-3; Log10 Concentration −4.0): −100%
- Percent Growth (OVCAR-3; Log10 Concentration −5.0): 7%
- Percent Growth (OVCAR-3; Log10 Concentration −6.0): 86%
- Percent Growth (OVCAR-3; Log10 Concentration −7.0): 100%
- Percent Growth (OVCAR-3; Log10 Concentration −8.0): 99%
- GI50 (OVCAR-3; NCI five dose): 2870 nM
- TGI (OVCAR-3; NCI five dose): 1.17E−5
- Percent Growth (CCRF-CEM; Log10 Concentration −4.0): −53%
- Percent Growth (CCRF-CEM; Log10 Concentration −5.0): −29%
- Percent Growth (CCRF-CEM; Log10 Concentration −6.0): 59%
- Percent Growth (CCRF-CEM; Log10 Concentration −7.0): 93%
- Percent Growth (CCRF-CEM; Log10 Concentration −8.0): 97%
- GI50 (CCRF-CEM; NCI five dose): 1250 nM
- TGI (CCRF-CEM; NCI five dose): 4.69E−6
- Percent Growth (A549/ATCC; Log10 Concentration −4.0): −88%
- Percent Growth (A549/ATCC; Log10 Concentration −5.0): 71%
- Percent Growth (A549/ATCC; Log10 Concentration −6.0): 95%
- Percent Growth (A549/ATCC; Log10 Concentration −7.0): 99%
- Percent Growth (A549/ATCC; Log10 Concentration −8.0): 100%
- GI50 (A549/ATCC; NCI five dose): 13500 nM
- TGI (A549/ATCC; NCI five dose): 2.80E−5

Source: patent US9469650B2, “Melampomagnolide B derivatives” (BOARD OF TRUSTEES OF THE UNIVERSITY OF ARKANSAS, priority 2013, dated 2016)
